pIC50: −log10 of the molar value.
organism: Oryctolagus cuniculus; test: In vitro antagonist activity was determined by the ability to antagonize the contractile response to angiotensin II in the isolated rabbit aortic strips; assay type: functional; conditions: Aorta

| SMILES | pIC50 |
| --- | --- |
| CCCCc1nc(Cl)c(CO)n1Cc1ccc(-c2ccccc2-c2nnn[nH]2)cc1 [LOSARTAN] | 8.21 |
| CCCCc1nc(Cl)c(CO)n1Cc1ccc(-c2ccccc2C(=O)O)cc1 | 6.92 |
| CCCCc1nc(Cl)c(C=O)n1Cc1ccc(-c2ccccc2C(=O)O)s1 | 5.70 |
| CCCCc1nc(Cl)c(CO)n1Cc1ccc(-c2ccccc2C(=O)O)s1 | 5.38 |

The next lines start with the values.

| pIC50 | SMILES |
| --- | --- |
| 6.48 | CCCCc1nc(Cl)c(CO)n1Cc1ccc(-c2ccccc2-c2nn[nH]n2)s1 |
| 6.48 | CCCCc1nc(Cl)c(C=O)n1Cc1ccc(-c2ccccc2-c2nn[nH]n2)s1 |
